Our source for the EC50 and IC50 values is patent publication US10336762B2 (priority 2017, dated 2019).

For one test, the system named is TNFα. Description: cells. In kind it is cell-based, human. The following applies: Homo sapiens, Monocyte, LPS-stimulated human monocytes, TNFα content; read-out: EC50 TNF.
The next test has as its target IRAK4 enzyme (Homo sapiens (Human), UniProt Q9NWZ3). Description: biochemical. In kind it is biochemical. The following applies: IRAK4 enzyme, TR-FRET (HTRF), 500 μM ATP.

Chain of IRAK4 enzyme (Q9NWZ3 whole entry): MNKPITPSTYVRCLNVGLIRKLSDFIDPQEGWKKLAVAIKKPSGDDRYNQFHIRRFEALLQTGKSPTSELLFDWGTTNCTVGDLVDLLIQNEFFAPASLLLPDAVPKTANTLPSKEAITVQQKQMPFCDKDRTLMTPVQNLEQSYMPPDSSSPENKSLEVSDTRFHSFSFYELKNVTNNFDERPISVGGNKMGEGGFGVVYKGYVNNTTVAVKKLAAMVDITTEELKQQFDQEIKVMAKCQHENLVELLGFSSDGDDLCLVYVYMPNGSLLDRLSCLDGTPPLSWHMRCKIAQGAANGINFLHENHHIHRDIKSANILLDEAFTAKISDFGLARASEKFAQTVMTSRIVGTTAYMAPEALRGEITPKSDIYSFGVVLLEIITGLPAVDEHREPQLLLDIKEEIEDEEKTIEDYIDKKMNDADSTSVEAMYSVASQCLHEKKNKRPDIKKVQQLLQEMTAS

With `Cc1cn2ccc(Nc3cc(-c4ccc5cc(C#N)cnn45)ncc3C(=O)NC[C@@H](F)C(C)(C)O)cc2n1` [Example 563, (R)-6-(3-cyanopyrrolo[1,2-b]pyridazin-7-yl)-N-(2-fluoro-3-hydroxy-3-methylbutyl)-4-((2-methyl-imidazo[1,2-a]pyridin-7-yl)amino)nicotinamide], the EC50 (in general, the concentration needed to bring the measured effect to its halfway point) in the test with TNFα was 114 nM. Besides, the IC50 – broadly, the point on the concentration scale where inhibition reaches its midpoint – against IRAK4 enzyme came to 2 nM.
On the same counts, the results for `COC(=O)c1ccc(Nc2cc(-c3ccc4cc(C#N)cnn34)ncc2C(=O)NC[C@@H](F)C(C)(C)O)cc1OC` [Example 564, (R)-methyl 4-((2-(3-cyano-pyrrolo[1,2-b]pyridazin-7-yl)-5-((2-fluoro-3-hydroxy-3-methylbutyl)carbamoyl)pyridin-4-yl)amino)-2-methoxybenzoate] are 315 nM and 23 nM.
As to `CC1(C)C(=O)Nc2cc(Nc3cc(-c4ccc5cc(C#N)cnn45)ncc3C(=O)NC[C@@H](F)C(C)(C)O)ccc21` [Example 565, (R)-6-(3-cyanopyrrolo[1,2-b]pyridazin-7-yl)-4-((3,3-dimethyl-2-oxoindolin-6-yl)amino)-N-(2-fluoro-3-hydroxy-3-methylbutyl) nicotinamide], the EC50 in the test with TNFα came to 23 nM. Moreover, the IC50 at IRAK4 enzyme was below 1 nM.
Taken in the same sequence, the figures for `CC(C)(O)[C@H](F)CNC(=O)c1cnc(-c2ccc3cc(C#N)cnn23)cc1Nc1cnc2cc[nH]c2c1` [Example 566, (R)-4-((1H-pyrrolo[3,2-b]pyridin-6-yl)amino)-6-(3-cyanopyrrolo[1,2-b]pyridazin-7-yl)-N-(2-fluoro-3-hydroxy-3-methyl-butyl)nicotinamide] were 27 nM and below 1 nM.
On the same counts, the results for `CC(C)(O)[C@H](F)CNC(=O)c1cnc(-c2ccc3cc(C#N)cnn23)cc1Nc1ccc(OC2COC2)cc1` [Example 567, (R)-6-(3-cyanopyrrolo[1,2-b]pyridazin-7-yl)-N-(2-fluoro-3-hydroxy-3-methylbutyl)-4-((4-(oxetan-3-yloxy)phenyl)amino)nicotinamide] are 50 nM and below 1 nM.
Taken in the same sequence, the figures for `CC(C)(O)[C@H](F)CNC(=O)c1cnc(-c2ccc3cc(C#N)cnn23)cc1Nc1ccc2oc(=O)[nH]c2c1` [Example 568, (R)-6-(3-cyanopyrrolo[1,2-b]pyridazin-7-yl)-N-(2-fluoro-3-hydroxy-3-methylbutyl)-4-((2-oxo-2,3-dihydrobenzo[d]oxazol-5-yl)amino)nicotinamide] were 214 nM and below 1 nM.
Take `CC(C)(O)[C@H](F)CNC(=O)c1cnc(-c2ccc3cc(C#N)cnn23)cc1Nc1ccn2ccnc2c1` [Example 570, (R)-6-(3-cyanopyrrolo[1,2-b]pyridazin-7-yl)-N-(2-fluoro-3-hydroxy-3-methyl-butyl)-4-(imidazo[1,2-a]pyridin-7-ylamino) nicotinamide]: in the test on TNFα, the EC50 came to 80 nM. Also, the IC50 against IRAK4 enzyme was below 1 nM.
Taken in the same sequence, the figures for `CC(C)(O)[C@H](F)CNC(=O)c1cnc(-c2ccc3cc(C#N)cnn23)cc1Nc1ccc2c(C#N)c[nH]c2c1` [Example 571, (R)-4-((3-cyano-1H-indol-6-yl)amino)-6-(3-cyano-pyrrolo[1,2-b]pyridazin-7-yl)-N-(2-fluoro-3-hydroxy-3-methylbutyl)nicotinamide] were 12 nM and below 1 nM.
As to `CC(C)(O)[C@H](F)CNC(=O)c1cnc(-c2ccc3cc(C#N)cnn23)cc1Nc1ccc2ncsc2c1` [Example 572, (R)-4-(benzo[d]thiazol-6-ylamino)-6-(3-cyano-pyrrolo[1,2-b]pyridazin-7-yl)-N-(2-fluoro-3-hydroxy-3-methylbutyl)nicotinamide], the EC50 in the test on TNFα was found to be 66 nM. This molecule also registered an IC50 against IRAK4 enzyme below 1 nM.
Taken in the same sequence, the figures for `CC(C)(O)[C@H](F)CNC(=O)c1cnc(-c2ccc3cc(C#N)cnn23)cc1Nc1ccc2c(c1)NC(=O)C2` [Example 573, (R)-6-(3-cyanopyrrolo[1,2-b]pyridazin-7-yl)-N-(2-fluoro-3-hydroxy-3-methyl-butyl)-4-((2-oxoindolin-6-yl)amino)nicotinamide] were 24 nM and below 1 nM.
Taken in the same sequence, the figures for `CC(C)(O)[C@H](F)CNC(=O)c1cnc(-c2ccc3cc(C#N)cnn23)cc1Nc1ccc2cn[nH]c2c1` [Example 574, (R)-4-((1H-indazol-6-yl)amino)-6-(3-cyano-pyrrolo[1,2-b]pyridazin-7-yl)-N-(2-fluoro-3-hydroxy-3-methylbutyl) nicotinamide] were 57 nM and below 1 nM.
`CN(C)C(=O)c1ccc(Nc2cc(-c3ccc4cc(C#N)cnn34)ncc2C(=O)NC[C@@H](F)C(C)(C)O)cn1` [Example 575, (R)-5-((2-(3-cyano-pyrrolo[1,2-b]pyridazin-7-yl)-5-((2-fluoro-3-hydroxy-3-methylbutyl)carbamoyl)pyridin-4-yl)amino)-N,N-dimethyl-picolinamide]: the EC50 in the test on TNFα is 144 nM. The same molecule showed an IC50 against IRAK4 enzyme of 2 nM.
Taken in the same sequence, the figures for `CC(C)(O)[C@H](F)CNC(=O)c1cnc(-c2ccc3cc(C#N)cnn23)cc1Nc1ccc2[nH]ccc2c1` [Example 576, (R)-4-((1H-indol-5-yl)amino)-6-(3-cyano-pyrrolo[1,2-b]pyridazin-7-yl)-N-(2-fluoro-3-hydroxy-3-methylbutyl) nicotinamide] were 21 nM and below 1 nM.
On the same counts, the results for `CC(C)(O)[C@H](F)CNC(=O)c1cnc(-c2ccc3cc(C#N)cnn23)cc1Nc1ccc2[nH]ncc2c1` [Example 577, (R)-4-((1H-indazol-5-yl)amino)-6-(3-cyano-pyrrolo[1,2-b]pyridazin-7-yl)-N-(2-fluoro-3-hydroxy-3-methylbutyl) nicotinamide] are 30 nM and below 1 nM.
On the same counts, the results for `CC(C)(O)[C@H](F)CNC(=O)c1cnc(-c2ccc3cc(C#N)cnn23)cc1Nc1ccc2cc[nH]c2c1` [Example 578, (R)-4-((1H-indol-6-yl)amino)-6-(3-cyano-pyrrolo[1,2-b]pyridazin-7-yl)-N-(2-fluoro-3-hydroxy-3-methylbutyl) nicotinamide] are 14 nM and 2 nM.
For `CNC(=O)c1ccc(Nc2cc(-c3ccc4cc(C#N)cnn34)ncc2C(=O)NC[C@@H](F)C(C)(C)O)cn1` [Example 579, (R)-5-((2-(3-cyano-pyrrolo[1,2-b]pyridazin-7-yl)-5-((2-fluoro-3-hydroxy-3-methylbutyl)carbamoyl)pyridin-4-yl)amino)-N-methylpicolinamide], the EC50 in the test with TNFα was determined as 75 nM. On IRAK4 enzyme, the IC50 was below 1 nM.
Taken in the same sequence, the figures for `CC(C)(O)[C@H](F)CNC(=O)c1cnc(-c2ccc3cc(C#N)cnn23)cc1Nc1ccc2nc[nH]c2c1` [Example 580, (R)-4-((1H-benzo[d]imidazol-6-yl)amino)-6-(3-cyanopyrrolo[1,2-b]pyridazin-7-yl)-N-(2-fluoro-3-hydroxy-3-methyl-butyl)nicotinamide] were 69 nM and below 1 nM.
As to `Cc1cc(Nc2cc(-c3ccc4cc(C#N)cnn34)ncc2C(=O)NC[C@@H](F)C(C)(C)O)ccc1C(N)=O` [Example 581, (R)-4-((4-carbamoyl-3-methylphenyl)amino)-6-(3-cyanopyrrolo[1,2-b]pyridazin-7-yl)-N-(2-fluoro-3-hydroxy-3-methylbutyl)nicotinamide], in the test on TNFα, the EC50 was 114 nM. In addition, the IC50 at IRAK4 enzyme was below 1 nM.
On the same counts, the results for `Cc1cc(Nc2cc(-c3ccc4cc(C#N)cnn34)ncc2C(=O)NC[C@@H](F)C(C)(C)O)ncc1C(N)=O` [Example 582, (R)-4-((5-carbamoyl-4-methylpyridin-2-yl)amino)-6-(3-cyanopyrrolo[1,2-b]pyridazin-7-yl)-N-(2-fluoro-3-hydroxy-3-methyl-butyl)nicotinamide] are 389 nM and 3 nM.
Taken in the same sequence, the figures for `Cc1cc(Nc2cc(-c3ccc4cc(C#N)cnn34)ncc2C(=O)NC[C@@H](F)C(C)(C)O)ccc1C#N` [Example 583, (R)-4-((4-cyano-3-methylphenyl)amino)-6-(3-cyanopyrrolo[1,2-b]pyridazin-7-yl)-N-(2-fluoro-3-hydroxy-3-methylbutyl)nicotinamide] were 140 nM and 2 nM.
On the same counts, the results for `CC(C)(O)[C@H](F)CNC(=O)c1cnc(-c2ccc3cc(C#N)cnn23)cc1Nc1ncc(F)cn1` [Example 584, (R)-6-(3-cyanopyrrolo[1,2-b]pyridazin-7-yl)-N-(2-fluoro-3-hydroxy-3-methylbutyl)-4-((5-fluoro-pyrimidin-2-yl)amino)nicotinamide] are 274 nM and 4 nM.
On to `Cc1cc(Nc2cc(-c3ccc4cc(C#N)cnn34)ncc2C(=O)NC[C@@H](F)C(C)(C)O)ncc1C#N` [Example 585, (R)-4-((5-cyano-4-methyl-pyridin-2-yl)amino)-6-(3-cyanopyrrolo[1,2-b]pyridazin-7-yl)-N-(2-fluoro-3-hydroxy-3-methyl-butyl)nicotinamide], for which the EC50 with TNFα worked out at 104 nM. The molecule also yielded an IC50 on IRAK4 enzyme of 2 nM.
Taken in the same sequence, the figures for `CC(C)(O)[C@H](F)CNC(=O)c1cnc(-c2ccc3cc(C#N)cnn23)cc1Nc1ccc(Cl)cn1` [Example 586, (R)-4-((5-chloropyridin-2-yl)amino)-6-(3-cyano-pyrrolo[1,2-b]pyridazin-7-yl)-N-(2-fluoro-3-hydroxy-3-methylbutyl) nicotinamide] were 118 nM and 1 nM.
On the same counts, the results for `CC(C)(O)[C@H](F)CNC(=O)c1cnc(-c2ccc3cc(C#N)cnn23)cc1Nc1ncccn1` [Example 587, (R)-6-(3-cyanopyrrolo[1,2-b]pyridazin-7-yl)-N-(2-fluoro-3-hydroxy-3-methyl-butyl)-4-(pyrimidin-2-ylamino)nicotinamide] are 150 nM and 3 nM.
Taken in the same sequence, the figures for `CC(C)(O)[C@H](F)CNC(=O)c1cnc(-c2ccc3cc(C#N)cnn23)cc1Nc1cccnn1` [Example 588, (R)-6-(3-cyanopyrrolo[1,2-b]pyridazin-7-yl)-N-(2-fluoro-3-hydroxy-3-methylbutyl)-4-(pyridazin-3-ylamino)nicotinamide] were 412 nM and 3 nM.
